As a reminder, the IC50 is the point on the concentration scale where inhibition reaches its midpoint.

In patent US10780082B2, “Macrocycle and composition comprising thereof” (Shenzhen TargetRx, Inc., priority 2016, dated 2020) one finds IC50 data, which are given here for 7 compounds.

Each structure is given as a SMILES string.

The experiment has as its system BaF3-NPM-ALK cells. The experiment can be described thus: Cytotoxicity experiment, ALK WT cells. The experiment is classed as cell-based, murine. The following applies: two days incubation. As for the experimental part: The cell line that can be used in the assay is Ba/F3, a murine pro-B cell line that has been stably transfected with the expression vector pClneo™ (Promega Corp., Madison Wis.) encoding NPM-ALK and subsequently G418-resistent cells were selected. The inhibitory activity of the compounds of Formula I can be determined as follows: BaF3-NPM-ALK cells (15000/well in a microtiter plate) were transferred to a 96-well microtiter plate. Test compounds (dissolved in DMSO) were then added in a series of concentrations (serial dilutions) with a final concentration of DMSO not exceeding 1% (v/v). […] The cell lysis was completed at room temperature within 60 minutes and the amount of Yopro bound to the DNA was determined by measurement using, for example, a CytoFluor II 96-well reader (PerSeptive Biosystems). IC50 can be determined by computer aided system using the following formula: IC50=[(ABS test−ABS start)/(ABS control−ABS start)]×100 wherein ABS was absorption.

For `C[C@H]1Oc2cc(cnc2N)-c2c(nn(C)c2C#N)CN(C)C(=O)c2ccc(F)cc21` [PF-06463922, reference compound], the IC50 was less than 1 nM.
As for `CC1Oc2cc(cnc2N)-c2c(nn(C)c2C#N)CN(C)C(=O)c2ccc(F)cc21` (racemic) [Compound 28], the figure is less than 1 nM; as for `CC1Oc2cc(cnc2N)-c2c(nn(C)c2C#N)CN(C)C(=O)c2ccc(F)cc21` (racemic) [Compound 76], less than 1 nM; as for `CC1Oc2cc(cnc2N)-c2c(nn(C)c2C#N)CN(C)C(=O)c2ccc(F)cc21` (racemic) [Compound 58], less than 1 nM.
Under `CC1Oc2cc(cnc2N)-c2c(nn(C)c2C#N)CN(C)C(=O)c2ccc(F)cc21` (single isomer, unassigned) [Compound 18] stands less than 1 nM; under `CC1Oc2cc(cnc2N)-c2c(nn(C)c2C#N)CN(C)C(=O)c2ccc(F)cc21` (racemic) [Compound 45], less than 1 nM.
As for `CC1Oc2cc(cnc2N)-c2c(nn(C)c2C#N)CN(C)C(=O)c2ccc(F)cc21` (racemic) [Compound 72], the figure is less than 1 nM.
